US11572475B2, “Carbocyanines for G-quadruplex DNA stabilization and telomerase inhibition” (GEORGIA STATE UNIVERSITY RESEARCH FOUNDATION, INC., priority 2011, dated 2023)

What was measured:
[1] = Trypan blue exclusion assay for cell viability, HDF; type: cell-based; details: human, HDF cells (non-cancerous cell line); at the lower dose (5 μM); read-out: cell viability of normal cells (HDF)
Procedure: (§1) To evaluate the cytotoxic properties of the cyanines described herein, trypan blue exclusion assay for cell viability was performed on 10 compounds at two different concentrations (5 μM and 20 μM). To test the cancer selectivity of the dyes, the results were compared in a cancer cell line, HeLa and a non-cancerous cell line, HDF. The loss of membrane integrity in dead and dying cells allows preferential uptake of labels like trypan blue. At the end of the incubation times with the dyes, HeLa or HDF cells were pelleted and washed with PBS. Well-suspended cells were mixed with equal volume of 0.4% trypan blue in 1×PBS, pH 7.4, followed by incubation at room temperature for 5 min. Cells were examined under the microscope and blue-stained cells were considered non-viable.

HeLa cells = test: Trypan blue exclusion assay for cell viability, HeLa; type: cell-based; details: for Hela cells killed: after 24 h
Procedure: as §1

[2] = test system: Human Telomere (HT) quadruplex DNA; test: Thermal melting UV-Vis absorbance, quadruplex DNA; type: binding; details: for Change in Thermal Melting Points, Human Telomere (HT), 1:1: ratio 1:1 (R); for Change in Thermal Melting Points, Human Telomere (HT), 2:1: ratio 2:1 (R); for Change in Thermal Melting Points, Human Telomere (HT), 4:1: ratio 4:1 (R); for Change in Thermal Melting Points, Human Telomere (HT), 6:1: ratio 6:1 (R); for Selectivity for quadruplex over duplex DNA by thermal melting: quadruplex vs duplex
Procedure: (§2) Three DNA sequences were used: Human Telomere (HTelo), c-myc, and Duplex (Integrated DNA Technologies, San Diego, Calif.). The sequences are shown below:
The concentration of each DNA sample mixed with MilliQ water was determined by UV-Vis at 260 nm using their extinction coefficients. Quadruplexes from Human Telomere (Tel22) and c-myc were prepared by heating the corresponding oligonucleotides at 90° C. for 5 minutes in a 10 mM Tris/50 mM KCl buffer at pH 7.5 and then cooling to room temperature (to favor the intramolecular folding).
(§3) The buffer used was 10 mM Tris base (Fischer Scientific, Fairlawn, N.J.), 50 mM Potassium Chloride (Fischer Scientific, Fairlawn, N.J.), with the pH adjusted to 7.5 with Hydrochloric Acid (Fischer Scientific, Fairlawn, N.J.).
(§4) DNA folding and unfolding (melting) can be measured using absorbance at a constant wavelength of 260 nm for duplex DNA and 295 nm for quadruplex DNA while the temperature is increased, for example from 25° C. to 95° C. At these wavelengths, the resulting curves decrease in absorbance for quadruplex and increase for duplex DNA. Buffer solution and presence of DNA-binding compounds alter the Tm melting temperature, or midpoint between fully folded and unfolded. An increase in melting temperature in the presence of DNA-binding compounds indicates a stabilizing effect of the compound on the DNA structure.
(§5) The selectivity of a given cyanine for quadruplex DNA can be evaluated using thermal melting. The number in parentheses next to the compound number corresponds to the compound number in Schemes 1 and 2.
(§6) Thermal melting studies were also performed on compounds T4 and T5 (Scheme 2) and ZK-14 and SP-2-36.

c-Myc quadruplex DNA = test: Fluorescence titration with c-Myc quadruplex; type: binding; details: fluorescence intensity of bound ligand divided by that of free ligand
Source text: (§7) Atoms absorb energy and can emit it as heat (vibrational relaxation), fast light emission (fluorescence), or slow light emission (phosphorescence). Most of the cyanines described herein fluoresce in response to near-infrared wavelengths of light absorption. As the cyanines bind to DNA, π-π stacking and hydrogen bonding is altered leading to a change in fluorescence emission. This change can be measured in direct correlation to DNA binding. In some cases an approximate binding constant can be determined from measuring fluorescence enhancement as DNA is titrated into a solution of fluorescent compound. Fluorescent enhancement, or the maximum emission divided by the minimum emission of the titration (compound saturated with DNA divided by free compound) at a fixed wavelength is useful to compare DNA affinity between a family of compounds.
(§8) A UV-Vis absorbance scan is first conducted to acquire the excitation wavelength. A 5 μM solution of compound in 1 mL, of Tris/K+ buffer is scanned from 800 nm to 200 nm at a rate of 60 nm/min with a 5 nm slit width. All DNAs are diluted in Tris/K+ buffer. The human telomere and c-Myc DNA are annealed into a quadruplex motif by heating at 95° C. in the presence of potassium ions in a hot water bath for approximately five minutes, then allowing the solution to slowly come to room temperature. In a fluorescence cell, an emission scan of 1 μM of compound in 1 mL of Tris Buffer is taken (Varian Cary Eclipse, Walnut Creek, Calif.) with appropriate parameters based on the excitation wavelength, an excitation slit width of 5 nm, and an emission slit width of 5 nm. Then 0.05 μM of DNA is titrated into the solution and scanned under the same conditions after each addition. The solution is titrated to saturation, at which the change in fluorescence intensity is nearly zero.
(§9) Due to the highly stabilized parallel quadruplex structure of c-Myc, thermal melting could not be considered for this sequence. Thus, fluorescence can be used to measure binding affinity towards the two quadruplex structures. […] Fluorescence enhancement, or the fluorescence intensity of the bound ligand divided by that of the free ligand, was considered in evaluating binding.

HDF cells = test: Trypan blue exclusion assay for cell viability, HDF; type: cell-based; details: at both concentrations; text also says lower concentrations (5-10 μM)
Procedure: as §1

Duplex DNA = test: Thermal melting UV-Vis absorbance, duplex DNA; type: binding; details: for Change in Thermal Melting Points, Duplex, 1:1: ratio 1:1 (R); for Change in Thermal Melting Points, Duplex, 2:1: ratio 2:1 (R); for Change in Thermal Melting Points, Duplex, 4:1: ratio 4:1 (R); for Change in Thermal Melting Points, Duplex, 6:1: ratio 6:1 (R)
Procedure: as §2, §3, §4, §5, §6

c-myc = test: Isothermal calorimetry, c-myc; type: binding; details: ITC, 25° C.
Procedure: (§10) DNA binding is dependent on enthalpy and entropy, components of the Gibbs free energy. Isothermal calorimetry measures the heat absorbed (endothermic binding) or released (exothermic binding) in binding at the μcalorie level. By examining the thermodynamics of different compounds, compounds can be analyzed to determine what factors favor quadruplex over duplex DNA binding. Enthalpy and binding constants are determined from measuring the heat change when compound is injected into a DNA solution, and the equations ΔG=ΔH−TΔS ΔG=−RT ln K are used to calculate entropy and Gibbs free energy.
(§11) Solutions of compound (0.2 mM) were injected 30 times into solutions of DNA (0.02 mM) on a VPC-ITC. All solutions were degasses at 25° C. for 15 minutes. TRIS/K^+ buffer was used in the reference cell. The injections were monitored at 25° C. with a reference power of 1 μcal/sec, an initial delay of 300 sec, and a stirring speed of 290. The first injection was 2 μL for 4 sec, with a spacing of 300 sec, and a filter period of 1 sec. The remaining 29 injections were 10 μL volume for a duration of 20 sec, with a spacing of 300 sec, and a filter period of 1 sec. The data was analyzed by VPViewer 2000 software.
(§12) Isothermal calorimetry (ITC) experiments were performed to test the SPR and fluorescence preference in binding c-myc over hTelo. […]

hTelo = test: Isothermal calorimetry, hTelo; type: binding, human; details: 25° C.
Procedure: as §10, §11, §12

[3] = test system: Human Telomere (HT) quadruplex DNA; test: Fluorescence titration with human telomere quadruplex; type: binding; details: fluorescence intensity of bound ligand divided by that of free ligand
Source text: as §7, §8, §9

A2T2 = test: Isothermal calorimetry, A2T2; type: binding; details: 25° C.
Procedure: as §10, §11, §12

SMILES	viability at 5 µM [1] [%]	Hela cells killed (HeLa cells; 5 μM) [%]	Hela cells killed (HeLa cells; 20 μM) [%]	Change in Thermal Melting Points, Human Telomere (HT), 1:1 [2]	Change in Thermal Melting Points, Human Telomere (HT), 2:1 [2]	Change in Thermal Melting Points, Human Telomere (HT), 4:1 [2]	Change in Thermal Melting Points, Human Telomere (HT), 6:1 [2]	Fluorescence Enhancement, c-Myc (c-Myc quadruplex DNA)	cell death, HDFs (HDF cells) [%]	Change in Thermal Melting Points, Duplex, 1:1 (Duplex DNA)	Change in Thermal Melting Points, Duplex, 2:1 (Duplex DNA)	Change in Thermal Melting Points, Duplex, 4:1 (Duplex DNA)	Change in Thermal Melting Points, Duplex, 6:1 (Duplex DNA)	K (M^−1), c-myc (c-myc) [M⁻¹]	K (M^−1), hTelo (hTelo; ITC) [M⁻¹]	Selectivity for quadruplex over duplex DNA by thermal melting [2]	Fluorescence Enhancement, HT [3]	ITC binding to A2T2 (A2T2)	Cytotoxicity to cancer cells (HeLa cells; HeLa, both concentrations studied (5 μM and 20 μM))	ITC binding to hTelo (hTelo)
CC1(C)C(/C=C/C(Br)=C/C=C2/N(CCC[N+](C)(C)C)c3ccc(I)cc3C2(C)C)=[N+](CCC[N+](C)(C)C)c2ccc(I)cc21 [A-161 (50)]	100	> 70	> 70	4.1	9.2	16.2	21.7													
CC1(C)C(/C=C/C(Br)=C/C=C2\N(CCC[N+](C)(C)C)c3ccccc3C2(C)C)=[N+](CCC[N+](C)(C)C)c2ccccc21 [A-C8 (43)]				2.0	4.6	11.6	15.6	3.46	~35	0.0	−1.1	0.9	−0.2	802000	55700	selectively bind to quadruplex DNA with little or no binding to duplex DNA	1.66	No binding		
CC1(C)C(/C=C/C=C2/N(CCC[N+](C)(C)C)c3ccc(Br)cc3C2(C)C)=[N+](CCC[N+](C)(C)C)c2ccc(Br)cc21 [MH5 (28)]				1	5.2	14.2	23.7	4.65		−0.1	−1.0	−1.0	−0.1	1.19e+06		selectively bind to quadruplex DNA with little or no binding to duplex DNA	1.6	No binding	highly cytotoxic to cancer cells	Weak binding- unable to fit
